Values after ≈ are worked out from the molar mass of the structure shown.
What was measured:
[1] = Determination of equilibrium solubility; assay type: physicochemical; conditions: for solubility thermodynamic at 24 h: 37 °C, thermodynamic from solid, 37±2° C., based on azilsartan
[2] = test system: spontaneously hypertensive rats; assay: Antihypertensive efficacy test in spontaneously hypertensive rats (systolic blood pressure and heart rate by implanted blood pressure sensor); assay type: in vivo, rat; conditions: SHR, intragastric, 1 mg/kg as azilsartan; for Change in heart rate / Changes in systolic blood pressure: mean ± standard error
Method: 12-week-old spontaneously hypertensive rats (hereinafter referred to as SHR, purchased from Beijing Vital River Laboratory Animal Technology Co., Ltd.) were anesthetized with 2.5% sodium pentobarbital for intraperitoneal injection. The blood pressure sensing catheter of a blood pressure implant was inserted into the abdominal aorta, the implant was fixed to the abdominal wall, and the postoperative daily care was performed after suturing. Animals with systolic blood pressure exceeding 160 mmHg were selected into a total of 3 groups with 8 animals in each group. The control group was given 0.5% CMC-Na (sodium carboxymethylcellulose); in the OR01019 group and the QR01019K group, the compounds were dissolved in 0.5% CMC-Na, and the doses were all administered at an effective dose of 1 mg/kg of azilsartan with an administration volume of 4 mL/kg by intragastric administration. The systolic blood pressure and heart rate of the animals before the administration were used as reference values, and the changes of systolic blood pressure and heart rate of SHR at each time point before and after administration were compared, in which the systolic blood pressure and heart rate of SHR were measured three times at each time point and then averaged.

[3] = aqueous buffer, pH 4.5 (acetate buffer)
[4] = aqueous buffer, pH 6.8 (phosphate buffer)
[5] = aqueous buffer, pH 7.8 (phosphate buffer)
[6] = simulated gastric fluid, pH 1.0 (hydrochloric acid solution)
[7] = before administration (reference value)

solubility thermodynamic at 24 h [1, 3] [µg/mL]	solubility thermodynamic at 24 h [1, 4] [µg/mL]	solubility thermodynamic at 24 h [1, 5] [µg/mL]	solubility thermodynamic at 24 h [1, 6] [µg/mL]	solubility thermodynamic at 24 h ([1]; Pure water) [µg/mL]	Structure (SMILES)	Change in heart rate ([2]; 1 hour after administration) [times/minute]	Changes in systolic blood pressure ([2]; 1 hour after administration) [mmHg]	Change in heart rate ([2]; 3 hours after administration) [times/minute]	Changes in systolic blood pressure ([2]; 3 hours after administration) [mmHg]	Change in heart rate ([2]; 5 hours after administration) [times/minute]	Changes in systolic blood pressure ([2]; 5 hours after administration) [mmHg]	Change in heart rate ([2]; 7 hours after administration) [times/minute]	Changes in systolic blood pressure ([2]; 7 hours after administration) [mmHg]	Change in heart rate ([2]; 10 hours after administration) [times/minute]	Changes in systolic blood pressure ([2]; 10 hours after administration) [mmHg]	Change in heart rate ([2]; 24 hours after administration) [times/minute]	Changes in systolic blood pressure ([2]; 24 hours after administration) [mmHg]	Change in heart rate [2, 7] [times/minute]	Changes in systolic blood pressure [2, 7] [mmHg]	other results
0.06 (≈ 0.0884 µM)	1.6 (≈ 2.36 µM)	13.6 (≈ 20 µM)	2.01 (≈ 2.96 µM)	0.74 (≈ 1.09 µM)	CCOc1nc2cccc(C(=O)OC(C)OC(=O)OCc3nc(C)c(C)nc3C)c2n1Cc1ccc(-c2ccccc2-c2noc(=O)[nH]2)cc1 (centres unmarked) [QR01019, reference compound]	−3.4 ± 2.6	−4.9 ± 4.8	−2.33 ± 2.6	−22.0 ± 3.6	−6.5 ± 2.8	−30.5 ± 3.5	−6.2 ± 3.0	−38.8 ± 2.3	−12.3 ± 2.8	−33.0 ± 1.7	−6.7 ± 2.6	−10.2 ± 2.1	0.0 ± 0.0	0.0 ± 0.0	–
2.3	25.9	400	18.7	542	CCOc1nc2cccc(C(=O)OC(C)OC(=O)OCc3nc(C)c(C)nc3C)c2n1Cc1ccc(-c2ccccc2-c2noc(=O)[n-]2)cc1.[K+] (centres unmarked) [QR01019K]	−3.6 ± 2.4	−7.0 ± 3.4	−5.0 ± 2.5	−34.3 ± 1.9	−10.1 ± 3.0	−46.5 ± 2.5	−17.5 ± 3.0	−49.4 ± 4.1	−25.4 ± 2.4	−45.3 ± 3.3	−28.6 ± 8	−25.9 ± 3.4	0.0 ± 0.0	0.0 ± 0.0	concentrations in acidic and neutral media compared with QR01019 (in words) ([1]; equilibrium solubility, Table 5): much higher than QR01019; antihypertensive effect compared with QR01019 (in words) [2]: more potent and longer-lasting antihypertensive effect than QR01019; effect of reducing heart rate compared with QR01019 (in words) [2]: more potent and longer-lasting effect of reducing heart rate than QR01019
